Measurements: publication PMC5218480 (PLoS ONE, 2017)

System: MV-4-11 cells
Experiment: Gene expression microarray analysis (Affymetrix PrimeView) and GSEA
Type: cell-based, human
Settings: ProbeSet 11758779_at; LIST B

Nc1ccc(-c2cccs2)cc1NC(=O)c1ccc2c(c1)cc(C1CC1)n2CCN1CCOCC1 [ACY-1035]
RFU, TMEM50B: 85.32 RFU
